In PMC8155176, “Reversible modulation of circadian time with chronophotopharmacology” (Nature Communications, 2021):

Assays:
spleen explants = assay: Ex vivo circadian period, spleen explants of Per2::Luc knock-in mice; design: species or system mouse; conditions: 12 µM
Experimental: Next, we applied the light-dependent period control to the tissue level using explants of Per2::Luc knock-in reporter mice. The mice express PER2-luciferase fusion protein under control of the endogenous Per2 promoter. […] The spleen explants were treated with thermally adapted trans-9, then irradiated with green light (λmax = 530 nm) or kept in dark, and luminescence rhythms were measured (Fig. 6a, b). […] In addition to the peripheral clock in spleen, we investigated the effect of compound 9 on the central clock in the hypothalamic suprachiasmatic nucleus (SCN) that controls behavioral rhythms. […] Together, compound 9 enabled light-dependent inducible control of the circadian period at both cellular and tissue levels.
Fig. 6 Ex vivo photo-modulation of the circadian period in mouse tissue explants. a–c The spleen explants of the Per2::Luc knock-in reporter mice were applied with 12 µM compound 9 and irradiated with green light (λmax = 530 nm) for 0 min (dark, black) or 30 min (green). Luminescence rhythms were then monitored and shown in a (mean of n = 5 for dark and n = 6 for green light). Baseline-subtracted data are shown in b. Period changes compared to a DMSO control are plotted in c. […] Luminescence is given in arbitrary units. n = 5 biologically independent samples for dark and n = 6 for green light. […] Luminescence rhythms of a representative sample for each condition are shown in d. […]

CKIδ = molecular target: T1, CKIδ (Homo sapiens, UniProt P48730); assay: In vitro kinase assay (Kinase Glo), CKIδ; type: biochemical; conditions: green light 530 nm vs dark
T1 construct: purchased Eurofins 14-520
T1 sequence (P48730 1-294 limits assumed): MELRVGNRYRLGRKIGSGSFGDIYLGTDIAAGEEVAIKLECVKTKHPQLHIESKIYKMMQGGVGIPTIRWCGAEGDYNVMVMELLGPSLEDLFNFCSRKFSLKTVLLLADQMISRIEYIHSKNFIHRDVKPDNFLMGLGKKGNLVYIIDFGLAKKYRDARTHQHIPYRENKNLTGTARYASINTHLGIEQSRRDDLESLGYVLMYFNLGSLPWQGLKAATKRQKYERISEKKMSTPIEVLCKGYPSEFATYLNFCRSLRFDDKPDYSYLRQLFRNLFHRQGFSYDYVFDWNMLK
Experimental: A stock solution of 7.4 mM in DMSO was prepared and thermally adapted by heating to c.a. 100 °C for 1 min. Two series of eight samples were prepared with consecutive three-time dilutions from the stock solution. One of the series (‘dark’ samples) was prepared in dark Eppendorf tube, the other series (‘light’ samples) was pre-irradiated with UV light (365 nm, UV lamp Spectroline, ENB-280/FE, 1 × 8 Watt) for 45 min. For compound 9, 1 mM solution in DMSO was thermally adapted by heating to 80 °C for 2 min and split into two vials. One vial was kept in the dark and the other was irradiated with green light (530 nm, 3x Nichia NCSG219B-V1, 3 × 550 mW, Sahlmann Photochemical Solutions) for 60 min. Both dark-kept and irradiated samples were subjected to 8-point 3-fold dilutions. All the solutions were applied to the well plate under a red lamp in the dark room in order to prevent ambient-light-induced photo-isomerization. […]
By employing this method, all reactions were started at the same time, minimizing variance between different samples. […] After the incubation, 10 μL Kinase Glo® (Promega) was applied into the wells and the luminescent signal was recorded by a plate reader (BioTek Synergy H1 or Cytation). […]
The data obtained from the in vitro kinase assay was analyzed using GraphPad software, in which the luminescence outcome is normalized. […]

## CC(C)n1cnc2c(NCc3ccc(F)c(/N=N/c4c(F)cccc4F)c3F)ncnc21 [Compound 9]
Spleen explants; 530 nm 30 min
  period effect after green light irradiation: suppressed the period-lengthening effect
Spleen explants; dark
  period effect vs DMSO control, dark: period lengthening
CKIδ
  ratio of CKIδ IC50 of cis-isomer to trans-isomer: 3.7 times
